Experimental data as given in the supplement of paper PMC9663587.

Experiments:
[1] = compound: CC(=O)c1c(C)c2cnc(Nc3ccc(N4CCNCC4)cn3)nc2n(C2CCCC2)c1=O
[2] = compound: CNc1nc(-c2ccc3c(N)n[nH]c3c2)cc(N2C[C@@H](C(=O)NC3CCCCC3)CC[C@H]2C)n1
Flavopiridol = compound: CN1CC[C@H](c2c(O)cc(O)c3c(=O)cc(-c4ccccc4Cl)oc23)[C@H](O)C1 [Flavopiridol]
Volasertib/BI6727 = compound: CC[C@@H]1C(=O)N(C)c2cnc(Nc3ccc(C(=O)N[C@H]4CC[C@H](N5CCN(CC6CC6)CC5)CC4)cc3OC)nc2N1C(C)C [Volasertib/BI6727]
[3] = compound: CO[C@@H](C)Cn1c(=O)n(C)c2cnc3ccc(-c4cncc(C(C)(C)O)c4)cc3c21
Torin2 = compound: C1=CC(=CC(=C1)N2C(=O)C=CC3=CN=C4C=CC(=CC4=C32)C5=CN=C(C=C5)N)C(F)(F)F [Torin2]
Taselisib/GDC0032 = compound: Cc1nc(-c2cn3c(n2)-c2ccc(-c4cnn(C(C)(C)C(N)=O)c4)cc2OCC3)n(C(C)C)n1 [Taselisib/GDC0032]
Pictilisib/GDC0941 = compound: CS(=O)(=O)N1CCN(Cc2cc3nc(-c4cccc5[nH]ncc45)nc(N4CCOCC4)c3s2)CC1 [Pictilisib/GDC0941]
INK128/MLN0128 = compound: CC(C)n1nc(-c2ccc3oc(N)nc3c2)c2c(N)ncnc21 [INK128/MLN0128]
Ipatasertib/GDC0068 = compound: CC(C)NC[C@@H](C(=O)N1CCN(c2ncnc3c2[C@H](C)C[C@H]3O)CC1)c1ccc(Cl)cc1 [Ipatasertib/GDC0068]
Dasatinib = compound: Cc1nc(Nc2ncc(C(=O)Nc3c(C)cccc3Cl)s2)cc(N2CCN(CCO)CC2)n1 [Dasatinib]
AZD7762 = compound: NC(=O)Nc1cc(-c2cccc(F)c2)sc1C(=O)N[C@H]1CCCNC1 [AZD7762]
senexin b = compound: CN1CCN(C(=O)c2ccc3cc(CCNc4ncnc5ccc(C#N)cc45)ccc3c2)CC1 [senexin b]
Tivantinib/ARQ197 = compound: O=C1NC(=O)[C@@H](c2cn3c4c(cccc24)CCC3)[C@@H]1c1c[nH]c2ccccc12 [Tivantinib/ARQ197]
AZD6738 = compound: C[C@@H]1COCCN1c1cc(C2([S@](C)(=N)=O)CC2)nc(-c2cc[nH]c3nccc2-3)n1 [AZD6738]
TGX221 = compound: CC1=CN2C(=O)C=C(N=C2C(=C1)C(C)NC3=CC=CC=C3)N4CCOCC4 [TGX221]
Alpelisib/BYL719 = compound: Cc1nc(NC(=O)N2CCC[C@H]2C(N)=O)sc1-c1ccnc(C(C)(C)C(F)(F)F)c1 [Alpelisib/BYL719]
AZD1775 = compound: C=CCn1c(=O)c2cnc(Nc3ccc(N4CCN(C)CC4)cc3)nc2n1-c1cccc(C(C)(C)O)n1 [AZD1775]
Olaparib/AZD2281 = compound: O=C(c1cc(Cc2n[nH]c(=O)c3ccccc23)ccc1F)N1CCN(C(=O)C2CC2)CC1 [Olaparib/AZD2281]
[4] = compound: CC(=O)Nc1cccc(-n2c(=O)n(C3CC3)c(=O)c3c(Nc4ccc(I)cc4F)n(C)c(=O)c(C)c32)c1
[5] = compound: COc1ccc2c(c1)[C@]1(C[C@H]1c1ccc3c(/C=C/c4ccc(CN5C[C@@H](C)O[C@@H](C)C5)cc4)n[nH]c3c1)C(=O)N2
Doxorubicin = compound: COc1cccc2c1C(=O)c1c(O)c3c(c(O)c1C2=O)C[C@@](O)(C(=O)CO)C[C@@H]3O[C@H]1C[C@H](N)[C@H](O)[C@H](C)O1 [Doxorubicin]
THZ1 = compound: CN(C)C/C=C/C(=O)Nc1ccc(C(=O)Nc2cccc(Nc3ncc(Cl)c(-c4c[nH]c5ccccc45)n3)c2)cc1 [THZ1]
THZ531 = compound: CN(C)C/C=C/C(=O)Nc1ccc(C(=O)N2CCC[C@@H](Nc3ncc(Cl)c(-c4c[nH]c5ccccc45)n3)C2)cc1 [THZ531]
R0-3306 = compound: C1=CC2=C(C=CC(=C2)C=C3C(=O)NC(=NCC4=CC=CS4)S3)N=C1 [R0-3306]
Cediranib/AZD2171 = compound: COc1cc2c(Oc3ccc4[nH]c(C)cc4c3F)ncnc2cc1OCCCN1CCCC1 [Cediranib/AZD2171]
ABT-737 = compound: CN(C)CC[C@H](CSc1ccccc1)Nc1ccc(S(=O)(=O)NC(=O)c2ccc(N3CCN(Cc4ccccc4-c4ccc(Cl)cc4)CC3)cc2)cc1[N+](=O)[O-] [ABT-737]
Rucaparib = compound: CNCc1ccc(-c2[nH]c3cc(F)cc4c3c2CCNC4=O)cc1 [Rucaparib]
LEE011/Ribociclib = compound: CN(C)C(=O)c1cc2cnc(Nc3ccc(N4CCNCC4)cn3)nc2n1C1CCCC1 [LEE011/Ribociclib]
[6] = compound: CCC1=CN=CN=C1N2CCN(CC2)CC3=NC4=C(N3)C=C(C=C4)C(F)(F)F
BVD523 = compound: CC(C)Nc1cc(-c2c[nH]c(C(=O)N[C@H](CO)c3cccc(Cl)c3)c2)c(Cl)cn1 [BVD523]
AZD2014 = compound: CNC(=O)c1cccc(-c2ccc3c(N4CCOC[C@@H]4C)nc(N4CCOC[C@@H]4C)nc3n2)c1 [AZD2014]
[7] = compound: Cc1nn(C)c(COc2ccc(N3CCN(S(=O)(=O)N(C)C)CC3)cc2)c1-c1cccc2c(CCCOc3cccc4ccccc34)c(C(=O)O)n(CCN3CCOCC3)c12
Neratinib/HKI272 = compound: CCOc1cc2ncc(C#N)c(Nc3ccc(OCc4ccccn4)c(Cl)c3)c2cc1NC(=O)/C=C/CN(C)C [Neratinib/HKI272]
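Further: breast cancer and non-malignant breast epithelial cell lines, Deep Dye Drop or Dye Drop imaging, nine half-log doses, GR normalized to time-zero plates and DMSO-only controls.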

Row | Cell Line | GR50, 72 h [1] | GR50, 72 h [2] | GR50, 72 h (Flavopiridol) | GR50, 72 h (Volasertib/BI6727) | GR50, 72 h [3] | GR50, 72 h (Torin2) | GR50, 72 h (Taselisib/GDC0032) | GR50, 72 h (Pictilisib/GDC0941) | GR50, 72 h (INK128/MLN0128) | GR50, 72 h (Ipatasertib/GDC0068) | GR50, 72 h (Dasatinib) | GR50, 72 h (AZD7762) | GR50, 72 h (senexin b) | GR50, 72 h (Tivantinib/ARQ197) | GR50, 72 h (AZD6738) | GR50, 72 h (TGX221) | GR50, 72 h (Alpelisib/BYL719) | GR50, 72 h (AZD1775) | GR50, 72 h (Olaparib/AZD2281) | GR50, 72 h [4] | GR50, 72 h [5] | GR50, 72 h (Doxorubicin) | GR50, 72 h (THZ1) | GR50, 72 h (THZ531) | GR50, 72 h (R0-3306) | GR50, 72 h (Cediranib/AZD2171) | GR50, 72 h (ABT-737) | GR50, 72 h (Rucaparib) | GR50, 72 h (LEE011/Ribociclib) | GR50, 72 h [6] | GR50, 72 h (BVD523) | GR50, 72 h (AZD2014) | GR50, 72 h [7] | GR50, 72 h (Neratinib/HKI272)
1 | 184A1 | 0.0897 µM | > 10 µM | 0.0383 µM | 0.0124 µM | 0.00147 µM | 0.0106 µM | 0.192 µM | 1.3 µM | 0.00892 µM | > 10 µM | 0.756 µM | 2.62 µM | > 10 µM | 0.0644 µM | > 10 µM | > 10 µM | 7.72 µM | 0.674 µM | > 10 µM | 0.00069 µM | 0.00198 µM | 0.00333 µM | 0.00774 µM | 0.269 µM | 2.78 µM | 7.6 µM | 3.93 µM | > 10 µM | 0.285 µM | > 10 µM | 0.00782 µM | 0.00164 µM | 3.65 µM | 0.0293 µM
2 | AU565 | 0.165 µM | 7.64 µM | 0.09 µM | 0.00381 µM | 0.00478 µM | 0.00547 µM | 0.00379 µM | 0.067 µM | 0.00529 µM | 3.89 µM | 5.35 µM | 0.805 µM | > 10 µM | 0.215 µM | 8.56 µM | > 10 µM | 0.27 µM | 0.216 µM | > 10 µM | > 1 µM | 0.00339 µM | 0.0352 µM | 0.0187 µM | 0.055 µM | 0.478 µM | > 10 µM | 7.24 µM | > 10 µM | 0.663 µM | 9.42 µM | > 10 µM | 0.00361 µM | > 10 µM | 0.00121 µM
3 | BT20 | 0.0435 µM | > 10 µM | 0.11 µM | 0.00563 µM | 0.00613 µM | 0.0089 µM | 0.0181 µM | 0.904 µM | 0.0129 µM | 0.645 µM | 0.68 µM | 1.1 µM | 2.3 µM | 0.473 µM | 5.85 µM | > 10 µM | 2.03 µM | 1.9 µM | > 10 µM | > 1 µM | 0.00274 µM | 0.00874 µM | 0.499 µM | > 1 µM | 5.2 µM | 5.69 µM | > 10 µM | > 10 µM | 0.359 µM | > 10 µM | > 10 µM | 0.146 µM | > 10 µM | 1.27 µM
